Measurements taken from US10168342B2, “Lipid probes and uses thereof” (THE SCRIPPS RESEARCH INSTITUTE, priority 2015, dated 2019).

Experiments:
[1] = biological target: T1, A-DA lipid probe targets in A549 cells (Homo sapiens, UniProt P30519); test: In situ competitive SILAC profiling with A-DA probe in (PMA-stimulated) A549 cells; conditions: A549 cells, A-DA probe
T1 sequence (P30519 1-316): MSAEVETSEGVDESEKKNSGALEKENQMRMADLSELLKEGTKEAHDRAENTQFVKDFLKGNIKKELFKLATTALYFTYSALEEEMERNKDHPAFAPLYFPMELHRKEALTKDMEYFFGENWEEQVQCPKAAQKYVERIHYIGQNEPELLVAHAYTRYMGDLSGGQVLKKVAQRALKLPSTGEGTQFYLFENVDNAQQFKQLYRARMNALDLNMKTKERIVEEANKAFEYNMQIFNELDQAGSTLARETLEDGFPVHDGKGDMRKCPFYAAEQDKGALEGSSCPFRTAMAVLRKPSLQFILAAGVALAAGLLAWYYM

[2] = biological target: T2, A-DA lipid probe targets in A549 cells (Homo sapiens, UniProt O15173); test: as above; conditions: A549 cells, A-DA probe
T2 sequence (O15173 1-223): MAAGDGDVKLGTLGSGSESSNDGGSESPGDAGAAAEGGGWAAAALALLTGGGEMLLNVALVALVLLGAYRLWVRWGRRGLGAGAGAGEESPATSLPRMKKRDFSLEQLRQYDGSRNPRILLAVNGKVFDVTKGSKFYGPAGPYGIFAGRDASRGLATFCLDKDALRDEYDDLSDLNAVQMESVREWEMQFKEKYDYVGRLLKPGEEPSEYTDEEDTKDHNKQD

humanized rat FAAH = biological target: T3, humanized rat FAAH (Rattus norvegicus, UniProt P97612, A377T/F194Y/I491V/L192F/S435N/V495M); test: FAAH activity by AEA hydrolysis, purified enzyme; format: biochemical; conditions: for inhibition of FAAH activity (AEA hydrolysis): 50 or 100 μM; for IC50: read-out: IC50 against purified recombinant FAAH
T3 sequence (P97612 30-579 L192F/F194Y/A377T/S435N/I491V/V495M limits assumed): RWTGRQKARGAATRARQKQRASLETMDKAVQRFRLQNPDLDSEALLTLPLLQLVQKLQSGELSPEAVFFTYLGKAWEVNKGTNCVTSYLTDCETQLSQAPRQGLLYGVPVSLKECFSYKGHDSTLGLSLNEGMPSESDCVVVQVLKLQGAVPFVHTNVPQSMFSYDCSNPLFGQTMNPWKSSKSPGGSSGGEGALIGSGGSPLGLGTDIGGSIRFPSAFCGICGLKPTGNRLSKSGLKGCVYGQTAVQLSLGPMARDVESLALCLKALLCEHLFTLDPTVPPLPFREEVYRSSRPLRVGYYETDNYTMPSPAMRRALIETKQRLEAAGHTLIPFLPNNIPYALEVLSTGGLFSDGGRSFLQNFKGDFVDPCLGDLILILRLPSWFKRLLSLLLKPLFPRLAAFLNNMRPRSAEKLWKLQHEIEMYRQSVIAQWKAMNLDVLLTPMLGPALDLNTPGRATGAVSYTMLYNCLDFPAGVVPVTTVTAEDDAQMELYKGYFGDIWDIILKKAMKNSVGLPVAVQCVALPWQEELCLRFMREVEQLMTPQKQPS
Procedure: FAAH activity was measured by AEA hydrolysis: The membrane fraction of Neuro2a lysates (200 μL, 2.0 mg/mL) was incubated with DMSO or the test compound (1.0-250 μM) at 37° C. After 15 min, AEA-d8 (25 μM) was added and the samples were incubated for an additional 30 min and then quenched by the addition of two volumes of CHCl3:MeOH (2:1) containing pentadecanoic acid (PDA) (1.0 nmol) as an internal standard. After centrifuging (2,000×g, 5 min, 4° C.) to separate the organic and aqueous layers, the lower organic layer was transferred to a clean vial and analyzed by LC/MS as previously described. (Long et al., 2009) Pure humanized rat FAAH (Mileni et al., 2008) (5.0 ng/μL) was assayed in the same manner. Product levels were quantified by determining peak areas in relation to PDA.

[3] = tested on: PGF2α-EA formation in PMA-stimulated A549 cells; test: Oxidative metabolism of AEA in A549 cells (prostamide formation); format: cell-based, human; conditions: MJN228, KML110 5 and 25 μM, others 25 μM, AEA 20 μM
Procedure: The media from the PMA-stimulated cells was removed and cells were washed with DPBS (2×3 mL) before adding freshly prepared media solutions containing vehicle or compound (2 mL/plate). After incubating for 30 min at 37° C., a solution of BHT-stabilized AEA (60 μM AEA; 60 μM BHT) in the same media was added to the cells (1.0 mL/plate) and incubated for 1 h. The media from the cells was then transferred to glass vials containing MS internal standards [PGE2-EA-d4 (25 pmol)], centrifuged (1,500×g, 5 min) to remove detached cells and then loaded onto pre-equilibrated reversed phase SPE cartridges (Phenomenex, Strata-X 33 μm, 60 mg/3 mL). After washing cartridges with 5% MeOH/H2O (3 mL), prostamides were eluted with MeOH (1.0 mL) and the eluent was concentrated under a stream of N2. Concentrated samples were stored at −80° C. until the day of analysis when they were reconstituted in Mobile Phase A [100 μL, 30% CH3CN in H2O (0.1% AcOH, 5.0 mM NH4OAc)].
Media extracts were analyzed by LC/MS/MS with LC separation performed on a Kinetex reversed phase C18 column (50×4.6 mm, 2.6 μm particle size, 100Å). Mobile phase A was composed of 30% (v/v) CH3CN in H2O and Mobile phase B was composed of 50% (v/v) CH3CN in i-PrOH. Both mobile phases also contained 0.1% AcOH and NH4OAc (5 mM) to facilitate ionization and LC separation. […]
MS analysis of prostamides was performed on an Agilent 6460 Triple Quadrupole LC/MS System with operating conditions as follows: gas temperature (300° C.); gas flow (9 L·min^−1); nebulizer (45 psi); sheath gas temperature (300° C.); sheath gas flow (12 L·min^−1); positive and negative capillary voltage (3.5 kV). Analysis was achieved using multiple reaction monitoring with precursor to product ion transitions, optimized collision energies (CE) as listed below and prostamide quantification was achieved by normalized of analyte peaks relative to a deuterated prostamide internal standard (PGE2-EA-d4) to account for differences in extraction efficiency. […]

O=C(/C=C/c1cccnc1)NCCCCC1CCN(C(=O)c2ccccc2)CC1 [FK-866, reference compound]
SILAC ratio, HMOX2 (P30519) ([1]; competitor 25 μM): 1.3
SILAC ratio, PGRMC2 (Q80UU9) ([2]; competitor 25 μM): 1.2

CN1CCN(C(=O)c2c(-c3ccccc3)c3cc([N+](=O)[O-])ccc3n2C)CC1 [KML110, (1-Methyl-5-nitro-3-phenyl-1H-indol-2-yl)(4-methylpiperazin-1-yl)methanone]
inhibition of FAAH activity (AEA hydrolysis) (humanized rat FAAH): do not substantially inhibit
IC50 (humanized rat FAAH): > 100 µM
conversion of exogenous AEA to PGF2α-EA [3]: suppress

CN1CCN(C(=O)c2[nH]c3ccc([N+](=O)[O-])cc3c2-c2ccccc2)CC1 [MJN228, (4-Methylpiperazin-1-yl)(5-nitro-3-phenyl-1H-indol-2-yl)methanone]
inhibition of FAAH activity (AEA hydrolysis) (humanized rat FAAH): do not substantially inhibit
IC50 (humanized rat FAAH): > 100 µM
conversion of exogenous AEA to PGF2α-EA [3]: suppress

C=CCN(C)CCCCCCOc1ccc(C(=O)c2ccc(Br)cc2)c(F)c1 [Ro488071]
SILAC ratio, HMOX2 (P30519) ([1]; competitor 5 μM): 1.3
SILAC ratio, HMOX2 (P30519) ([1]; competitor 50 μM): 3.4
SILAC ratio, PGRMC2 (Q80UU9) ([2]; competitor 5 μM): 1.6
SILAC ratio, PGRMC2 (Q80UU9) ([2]; competitor 50 μM): 2.1
